Laboratory results from PubChem BioAssay (NCI).
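Where inhibition never reached the appropriate level, the endpoint shown equals the highest concentration tested. Otherwise, values were interpolated linearly from a five-concentration, 48-hour dose response in 96-well plates. TGI: total growth inhibition.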

How the values were obtained:
Assay in all cases: NCI tumour cell line growth inhibition, 48 h
KM12 colon = system: KM12 colon
786-0 renal = system: 786-0 renal
SNB-75 CNS = system: SNB-75 CNS
SF-539 CNS = system: SF-539 CNS
DMS 114 small cell lung = system: DMS 114 small cell lung
DMS 273 small cell lung = system: DMS 273 small cell lung
NCI-H23 lung = system: NCI-H23 lung
LOX IMVI melanoma = system: LOX IMVI melanoma
OVCAR-4 ovarian = system: OVCAR-4 ovarian
HOP-92 NSCLC = system: HOP-92 NSCLC
CAKI-1 renal = system: CAKI-1 renal
NCI-H522 lung = system: NCI-H522 lung
NCI-H460 lung = system: NCI-H460 lung
COLO 205 colon = system: COLO 205 colon
SF-268 CNS = system: SF-268 CNS
MALME-3M melanoma = system: MALME-3M melanoma
SNB-78 CNS = system: SNB-78 CNS
OVCAR-5 ovarian = system: OVCAR-5 ovarian
SR leukemia = system: SR leukemia
ACHN renal = system: ACHN renal
RXF-631 renal = system: RXF-631 renal
OVCAR-8 ovarian = system: OVCAR-8 ovarian
LXFL 529 NSCLC = system: LXFL 529 NSCLC
XF 498 CNS = system: XF 498 CNS
MOLT-4 leukemia = system: MOLT-4 leukemia
CCRF-CEM leukemia = system: CCRF-CEM leukemia
RXF 393 renal = system: RXF 393 renal
TK-10 renal = system: TK-10 renal
UO-31 renal = system: UO-31 renal
HT29 colon = system: HT29 colon
SN12C renal = system: SN12C renal
KM20L2 colon = system: KM20L2 colon
IGROV1 ovarian = system: IGROV1 ovarian
UACC-62 melanoma = system: UACC-62 melanoma
HCT-15 colon = system: HCT-15 colon
U251 CNS = system: U251 CNS
SK-MEL-2 melanoma = system: SK-MEL-2 melanoma
DLD-1 colon = system: DLD-1 colon
SK-MEL-5 melanoma = system: SK-MEL-5 melanoma
SF-295 CNS = system: SF-295 CNS
SNB-19 CNS = system: SNB-19 CNS
K-562 leukemia = system: K-562 leukemia
SK-OV-3 ovarian = system: SK-OV-3 ovarian
OVCAR-3 ovarian = system: OVCAR-3 ovarian
HL-60(TB) leukemia = system: HL-60(TB) leukemia
HOP-62 NSCLC = system: HOP-62 NSCLC
M19-MEL melanoma = system: M19-MEL melanoma
SK-MEL-28 melanoma = system: SK-MEL-28 melanoma
NCI-H226 lung = system: NCI-H226 lung
HCT-116 colon = system: HCT-116 colon
EKVX NSCLC = system: EKVX NSCLC
A549 NSCLC = system: A549 NSCLC
SW-620 colon = system: SW-620 colon
RPMI-8226 leukemia = system: RPMI-8226 leukemia
HOP-18 NSCLC = system: HOP-18 NSCLC
M14 melanoma = system: M14 melanoma
UACC-257 melanoma = system: UACC-257 melanoma

Cc1noc2cccc(OCc3ccccc3)c12
TGI (KM12 colon): > 100 µM | TGI (786-0 renal): > 100 µM | TGI (SNB-75 CNS): 87.6 µM | TGI (SF-539 CNS): > 100 µM | TGI (DMS 114 small cell lung): > 100 µM | TGI (DMS 273 small cell lung): > 100 µM | TGI (NCI-H23 lung): > 100 µM | TGI (LOX IMVI melanoma): > 100 µM | TGI (OVCAR-4 ovarian): > 100 µM | TGI (HOP-92 NSCLC): > 100 µM | TGI (CAKI-1 renal): > 100 µM | TGI (NCI-H522 lung): > 100 µM | TGI (NCI-H460 lung): > 100 µM | TGI (COLO 205 colon): > 100 µM | TGI (SF-268 CNS): > 100 µM | TGI (MALME-3M melanoma): > 100 µM | TGI (SNB-78 CNS): > 100 µM | TGI (OVCAR-5 ovarian): > 100 µM | TGI (SR leukemia): > 100 µM | TGI (ACHN renal): > 100 µM | TGI (RXF-631 renal): > 100 µM | TGI (OVCAR-8 ovarian): > 100 µM | TGI (LXFL 529 NSCLC): > 100 µM | TGI (XF 498 CNS): > 100 µM | TGI (MOLT-4 leukemia): > 100 µM | TGI (CCRF-CEM leukemia): > 100 µM | TGI (RXF 393 renal): > 100 µM | TGI (TK-10 renal): > 100 µM | TGI (UO-31 renal): > 100 µM | TGI (HT29 colon): > 100 µM | TGI (SN12C renal): > 100 µM | TGI (KM20L2 colon): > 100 µM | TGI (IGROV1 ovarian): > 100 µM | TGI (UACC-62 melanoma): > 100 µM | TGI (HCT-15 colon): > 100 µM | TGI (U251 CNS): > 100 µM | TGI (SK-MEL-2 melanoma): 94.5 µM | TGI (DLD-1 colon): > 100 µM | TGI (SK-MEL-5 melanoma): 41.5 µM | TGI (SF-295 CNS): > 100 µM | TGI (SNB-19 CNS): > 100 µM | TGI (K-562 leukemia): > 100 µM | TGI (SK-OV-3 ovarian): > 100 µM | TGI (OVCAR-3 ovarian): > 100 µM | TGI (HL-60(TB) leukemia): > 100 µM | TGI (HOP-62 NSCLC): > 100 µM | TGI (M19-MEL melanoma): > 100 µM | TGI (SK-MEL-28 melanoma): > 100 µM | TGI (NCI-H226 lung): > 100 µM | TGI (HCT-116 colon): > 100 µM | TGI (EKVX NSCLC): > 100 µM | TGI (A549 NSCLC): > 100 µM | TGI (SW-620 colon): > 100 µM | TGI (RPMI-8226 leukemia): > 100 µM | TGI (HOP-18 NSCLC): > 100 µM | TGI (M14 melanoma): > 100 µM | TGI (UACC-257 melanoma): > 100 µM
